{"source": "patent US9447140B2", "about": "“Cholest-4-en-3-one oxime derivatives, pharmaceutical compositions containing same, and preparation method” (TROPHOS, priority 2008, dated 2016)", "key": {"rat motor neurons": {"system": "rat motor neurons", "assay": "in vitro model of trophic deprivation of rat motor neurons (survival, calcein fluorescence after 3 days)", "format": "cell-based", "conditions": "E14 rat motor neurons, Neurobasal medium without neurotrophic factors", "text": "Reference can usefully be made to the applicant's patent application WO 0142784 on the culturing of motor neurons of the spinal cord.\nThe spinal cord of E14 rat embryos is dissected and the ventral part is dissociated by trituration after trypsination.\nThe motor neurons are separated from the other spinal cells by a known method (Camu et al., 1993, Purification of spinal motoneurons from chicken and rat embryos by immunopanning. In “Immunoselection Strategies for Neural cell culture”, Neuroprotocols: A companion to Methods in Neurosciences 2, 191-199; Henderson et al., 1993, Neutrophins promote motor neuron survival and are present in embryonic limb bud. Nature 363 (6426):266-70).\nThe cells are centrifuged on a density gradient. The fraction of large cells (the least dense) is enriched with motor neurons. The cells in this fraction are incubated with an anti-p75 antibody, a surface antigen present on the motor neurons.\nSecondary antibodies coupled to magnetic beads are added and the mixture of cells is passed through a column in a magnet (Arce et al., 1999 Cardiotrophin-1 requires LIFRbeta to promote survival of mouse motoneurons purified by a novel technique. J. Neurosci Res 55 (1): 119-26). Only the motor neurons are retained: their purity is of the order of 90%.\nThe motor neurons are seeded at a low density in culture wells on a polyornithine-laminin substrate in a neurobasal medium (GIBCO) supplemented according to Raoul et al., 1999, Programmed cell death of embryonic motoneurons triggered through the Fas death receptor. J Cell Biol 147 (5):1049-62.\nNegative controls (absence of trophic factors) and positive controls (in the presence of BDNF (Brain-Derived Neurotrophic Factor) at 1 ng/ml, GDNF (Glial-Derived Neurotrophic Factor) at 1 ng/ml and CNTF (Ciliary Neurotrophic Factor) at 10 ng/ml, marketed by the American company PEPROTECH, Inc. and the company Sigma-Aldrich, are included in each series.\nThe compounds to be tested are added 60 minutes after seeding and the cultures are maintained at 37° C. under 5% CO2 for 3 days.\nThe motor neurons have a spontaneous tendency to die in the absence of neurotrophic factors (Pettmann and Henderson, 1998, Neuronal cell death. Neuron 20 (4):633-47). After 3 days, the survival is evaluated by a fluorescence measurement after incubation of the cells in the presence of calcein which becomes fluorescent in living cells.\nAfter 3 days in culture at 37° C., under 5% CO2 and under saturation humidity, up to 50% of the motor neurons initially seeded survive in the medium supplemented with neurotrophic factors, whilst less than 15% of the motor neurons survive in culture medium without added neurotrophic factors.\nThe neuroprotective activity of the compounds to be tested was evaluated by their ability to prevent the death of the motor neurons when they are added to the Neurobasal medium (GIBCO) in comparison with the survival of the motor neurons in medium with added neurotrophic factors.\nThis survival rate is expressed by the number of living cells after treatment with the compound to be tested compared with the survival induced by the neurotrophic factors. This ratio can therefore represent the survival percentage due to the compound tested compared with the survival induced by the neurotrophic factors. If the ratio is greater than 0, the effect of the compounds on the survival of the motor neurons is positive."}, "[1]": {"assay": "exposure after administration by oral route", "format": "in vivo", "conditions": "qualitative"}}}
{"compound": "CC(C)CCC[C@@H](C)[C@H]1CC[C@H]2[C@@H]3CCC4=CC(=NO)CC[C@]4(CO)[C@H]3CC[C@]12C", "note": "[Example 2k, 3-oxyimino-19-hydroxy-cholest-4-ene]", "values": [{"measurement": "Ratio (survival of motor neurons with compound compared with the survival induced by the neurotrophic factors)", "setting": "rat motor neurons; Concentration 3 μM", "result": 0.49}]}
{"compound": "CC(C)CCC[C@@H](C)[C@H]1CC[C@H]2[C@@H]3CC(F)C4=CC(=NO)C(F)C[C@]4(C)[C@H]3CC[C@]12C", "note": "(stereo partly drawn) [Example 2e, 3-oxyimino-2,6-difluoro-cholest-4-ene]", "values": [{"measurement": "Ratio (survival of motor neurons with compound compared with the survival induced by the neurotrophic factors)", "setting": "rat motor neurons; Concentration 3 μM", "result": 0.37}]}
{"compound": "CC(C)CCC[C@@H](C)[C@H]1CCC2C3CCC4=C/C(=N/O)C(F)(F)C[C@]4(C)C3CC[C@@]21C", "note": "(stereo partly drawn) [Example 2d, 3-oxyimino-2,2-difluoro-cholest-4-ene]", "values": [{"measurement": "Ratio (survival of motor neurons with compound compared with the survival induced by the neurotrophic factors)", "setting": "rat motor neurons; Concentration 3 μM", "result": 0.50}]}
{"compound": "CC(CCC[C@@H](C)[C@H]1CC[C@H]2[C@@H]3CCC4=CC(=NO)CC[C@]4(C)[C@H]3CC[C@]12C)N(C)c1ccc([N+](=O)[O-])c2nonc12", "note": "(stereo partly drawn) [Example 2h, 3-oxyimino-25-[methyl(7-nitro-2,1,3-benzoxadiazol-4-yl)amino]-27-norcholest-4-ene]", "values": [{"measurement": "Ratio (survival of motor neurons with compound compared with the survival induced by the neurotrophic factors)", "setting": "rat motor neurons; Concentration 1 μM", "result": 0.66}]}
{"compound": "CC(C)CCC[C@@H](C)[C@H]1CC[C@H]2[C@@H]3CCC4=CC(=NO)CC[C@]4(COC(=O)CCCCC4SCC5NC(=O)NC54)[C@H]3CC[C@]12C", "note": "(stereo partly drawn) [Example 2l, 3-oxyimino-19-biotinyloxy-cholest-4-ene]", "values": [{"measurement": "Ratio (survival of motor neurons with compound compared with the survival induced by the neurotrophic factors)", "setting": "rat motor neurons; Concentration 1 μM", "result": 0.32}]}
{"compound": "CC(C)CCC[C@@H](C)[C@H]1CC[C@H]2[C@@H]3CCC4=CC(=NO)[C@H](F)C[C@]4(C)[C@H]3CC[C@]12C", "note": "[Example 2f, 3-oxyimino-2α-fluoro-cholest-4-ene]", "values": [{"measurement": "Ratio (survival of motor neurons with compound compared with the survival induced by the neurotrophic factors)", "setting": "rat motor neurons; Concentration 3 μM", "result": 0.27}]}
{"compound": "CC(C)CCC[C@@H](C)[C@H]1CC[C@H]2[C@@H]3CCC4=CC(=NO)C(C)C[C@]4(C)[C@H]3CC[C@]12C", "note": "(stereo partly drawn) [Example 2m, 3-oxyimino-2-methyl-cholest-4-ene]", "values": [{"measurement": "Ratio (survival of motor neurons with compound compared with the survival induced by the neurotrophic factors)", "setting": "rat motor neurons; Concentration 1 μM", "result": 0.42}]}
{"compound": "COC1=C2CC[C@H]3[C@@H]4CC[C@H]([C@H](C)CCCC(C)C)[C@@]4(C)CC[C@@H]3[C@@]2(C)CCC1=NO", "note": "[Example 2n, 3-oxyimino-4-methoxy-cholest-4-ene]", "values": [{"measurement": "Ratio (survival of motor neurons with compound compared with the survival induced by the neurotrophic factors)", "setting": "rat motor neurons; Concentration 1 μM", "result": 0.34}]}
{"compound": "CC(C)CCC[C@@H](C)[C@H]1CCC2C3C[C@@H](F)C4=CC(=NO)CC[C@]4(C)C3CC[C@@]21C", "note": "(stereo partly drawn) [Example 2c, 3-oxyimino-6β-fluoro-cholest-4-ene]", "values": [{"measurement": "Ratio (survival of motor neurons with compound compared with the survival induced by the neurotrophic factors)", "setting": "rat motor neurons; Concentration 3 μM", "result": 0.50}]}
{"compound": "CC(CCCC(C)N(C)C(=O)CCCCC1SCC2NC(=O)NC21)C1CCC2C3CCC4=CC(=NO)CCC4(C)C3CCC12C", "note": "(stereo not drawn) [Example 2i, 3-oxyimino-25-((N-(+)-biotinoyl-N-methyl)amino)-27-norcholest-4-ene]", "values": [{"measurement": "Ratio (survival of motor neurons with compound compared with the survival induced by the neurotrophic factors)", "setting": "rat motor neurons; Concentration 3 μM", "result": 0.42}]}
{"compound": "CC(C)CCC[C@@H](C)[C@H]1CCC2C3CCC4=C(F)/C(=N/O)CC[C@]4(C)C3CC[C@@]21C", "note": "(stereo partly drawn) [Example 2b, 3-oxyimino-4-fluoro-cholest-4-ene]", "values": [{"measurement": "Ratio (survival of motor neurons with compound compared with the survival induced by the neurotrophic factors)", "setting": "rat motor neurons; Concentration 3 μM", "result": 0.73}, {"measurement": "exposure when administered by oral route", "setting": "[1]", "result": "improved exposure"}]}
